Test results published in patent US7410655B2, “Anticancer agent” (Nobel Limited Liability Company, priority 2001, dated 2008).

Tested on: PA-23 rhabdomyosarcoma
Assay: PA-23 rhabdomyosarcoma lung metastases after inoculation in the caudal vein of rats
Assay type: in vivo
Details: Example 2; 0.003 mg/ml in sodium chloride isotonic solution
Procedure: The preparation anti-tumor action was tested on female white rats.
The PA-23 rhabdomyosarcoma cell suspension was inoculated in the caudal vein of all rats, being generally used as a model for investigating the ability of such preparations to inhibit stroma development, which is characteristic of most malignant tumors.
All the animals were divided into 5 groups. On the following day after the inoculation a physiological solution was intra-abdominal injected into the rats of Group 1 (0.5 ml per animal); 0.1 ml of the preparation—into the rats of Group 2, 0.3 ml of the preparation—into the rats of Group 3; 0.5 ml of the preparation—into the rats of Group 4; and 0.8 ml of the preparation—into the rats of Group 5. Prior to administration the preparation had been diluted with a physiological solution in the ratio of 1 to 10.
Subsequent administration of the preparation […] was carried out every third day. On the 20 th day following the tumoral inoculation the rats were destroyed. Their bodies were dissected, the number of metastases in their lungs calculated and their respective weight determined by means of analytical balance weighing.
As in Example 1, the PA-23 rhabdomyosarcomas were used as a model. Tumoral inoculation was performed in a similar way. The laboratory animals were also divided into groups. The sodium chloride isotonic solution was injected into Group 1 (control), potassium tetrachloroplatinate in the sodium chloride isotonic solution—into Group 2, ammonium lignohumic acid salts in the sodium chloride isotonic solution were injected into Group 3, injections of the proposed preparation diluted with a physiological solution in the ratio of 1 to 10 were given to Group 4.

Compound: [Cl][Pt-2]([Cl])([Cl])[Cl].[K+].[K+] [Potassium tetrachloroplatinate solution, potassium tetrachloroplatinate]
- Average number of metastases per rat: 33.2 ± 6.2
- Average weight of 1 metastasis: 42.9 ± 4.3 mg
- Average weight of 1 metastasis, % of the Control Group: 88.5%
- Number of metastases: 531
